This is an account of results in PubChem BioAssay AID248 (DTP/NCI, 2004).

Where “and” joins values, the source holds several entries; their conditions need not be identical. Identical values can stand only once. Toxic doses and inconclusive results are not listed.

The subject of this test is L1210 leukemia ip in BDF1 mice, survival T/C. Kind of test: NCI In Vivo Anticancer Drug Screen. Data for tumor model L1210 Leukemia (intraperitoneal) in B6D2F1 (BDF1) mice. Particulars: endpoint: mean survival time, higher = longer survival. A digest of the protocol:
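Antitumor effect is assessed in tumor-bearing animals. Survival in the compound arm is compared with a vehicle-dosed control arm and expressed as their quotient.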

The mark [1] stands for this setting: dose: 100.0 mg/kg/injection, schedule: Q01DX001 (ip), vehicle: carboxymethylcellulose (CMC).
The mark [2] stands for this setting: dose: 200.0 mg/kg/injection, schedule: Q01DX001 (ip), vehicle: carboxymethylcellulose (CMC).
Setting [3] is: dose: 400.0 mg/kg/injection, schedule: Q01DX001 (ip), vehicle: carboxymethylcellulose (CMC).
The mark [4] stands for this setting: dose: 100.0 mg/kg/injection, schedule: Q04DX003 (ip), vehicle: saline.
[5] abbreviates: dose: 200.0 mg/kg/injection, schedule: Q04DX003 (ip), vehicle: saline.
[6] abbreviates: dose: 100.0 mg/kg/injection, schedule: Q01DX009 (ip), vehicle: Klucel (hydroxypropylcellulose) (HPC).
The mark [7] stands for this setting: dose: 100.0 mg/kg/injection, schedule: Q04DX003 (ip), vehicle: Klucel (hydroxypropylcellulose) (HPC).
The mark [8] stands for this setting: dose: 200.0 mg/kg/injection, schedule: Q01DX009 (ip), vehicle: Klucel (hydroxypropylcellulose) (HPC).
[9] abbreviates: dose: 200.0 mg/kg/injection, schedule: Q04DX003 (ip), vehicle: Klucel (hydroxypropylcellulose) (HPC).
[10] abbreviates: dose: 400.0 mg/kg/injection, schedule: Q01DX009 (ip), vehicle: Klucel (hydroxypropylcellulose) (HPC).
Where [11] appears, read: dose: 400.0 mg/kg/injection, schedule: Q04DX003 (ip), vehicle: Klucel (hydroxypropylcellulose) (HPC).
The mark [12] stands for this setting: dose: 50.0 mg/kg/injection, schedule: Q01DX001 (ip), vehicle: carboxymethylcellulose (CMC).
[13] abbreviates: dose: 400.0 mg/kg/injection, schedule: Q04DX003 (ip), vehicle: saline.

Regarding `COc1ccccc1NC(=O)Nc1ccc(C)c(C)c1`, the T/C reads like this: (dose: 100.0 mg/kg/injection, schedule: Q01DX009 (ip), vehicle: gum acacia) 92 % of control; (dose: 100.0 mg/kg/injection, schedule: Q04DX003 (ip), vehicle: gum acacia) 96 % of control; (dose: 200.0 mg/kg/injection, schedule: Q01DX009 (ip), vehicle: gum acacia) 96 % of control; (dose: 200.0 mg/kg/injection, schedule: Q04DX003 (ip), vehicle: gum acacia) 98 % of control; (dose: 400.0 mg/kg/injection, schedule: Q01DX009 (ip), vehicle: gum acacia) 90 % of control; (dose: 400.0 mg/kg/injection, schedule: Q04DX003 (ip), vehicle: gum acacia) 90 % of control.

With `NC(CCl)=NC1CC1`, the T/C runs as follows: (dose: 25.0 mg/kg/injection, schedule: Q04DX002 (ip), vehicle: saline) 106 % of control; (dose: 50.0 mg/kg/injection, schedule: Q04DX002 (ip), vehicle: saline) 106 % of control; (dose: 100.0 mg/kg/injection, schedule: Q04DX002 (ip), vehicle: saline) 110 % of control.

For the molecule `O=[N+]([O-])c1ccc2cnn(CCO)c2c1`, the T/C runs as follows: under setting [1], 101 % of control; under setting [2], 113 % of control; under setting [3], 101 % of control.

As to `O=C(NCCBr)OCc1ccccc1`, the T/C (dose: 50.0 mg/kg/injection, schedule: Q04DX003 (ip), vehicle: saline) was 98 % of control; the T/C under setting [4] was 98 % of control; the T/C under setting [5] was 101 % of control.

Regarding `Cc1cc(OCc2nc(N)nc(N)c2-c2ccc(Cl)c(Cl)c2)ccc1NC(=O)c1ccc(S(=O)(=O)F)cc1`, the T/C (dose: 75.0 mg/kg/injection, schedule: Q01DX001 (ip), vehicle: saline with Tween-80) is 100 % of control.

For `CC1(C)C=C(C(Br)c2cccc(Cl)c2)C(=O)c2ccccc21` (centres undefined), the T/C under setting [6] is 101 % of control; the T/C under setting [7] was 109 % of control; the T/C under setting [8] was 104 % of control; the T/C under setting [9] was 106 % of control; the T/C under setting [10] was 106 % of control; the T/C under setting [11] is 104 % of control.

In the case of `COc1cc(OC)c(/C=C/c2cc3c4ccccc4ccc3[n+](C)c2)c(OC)c1`, the T/C is 104 % of control (dose: 6.25 mg/kg/injection, schedule: Q01DX001 (ip), vehicle: saline with Tween-80) and 107 % of control (dose: 12.5 mg/kg/injection, schedule: Q01DX001 (ip), vehicle: saline with Tween-80).

Turning to `NN(c1ccccc1)c1ccc2ccccc2c1`, the T/C (dose: 50.0 mg/kg/injection, schedule: Q01DX009 (ip), vehicle: Klucel (hydroxypropylcellulose) (HPC)) was 115 % of control; the T/C under setting [6] is 100 % of control; the T/C under setting [7] was 93 % of control; the T/C under setting [8] was 103 % of control; the T/C under setting [9] was 93 % of control; the T/C under setting [11] was 86 % of control.

Turning to `CN(C)CCSS(=O)(=O)O`, the T/C (dose: 100.0 mg/kg/injection, schedule: Q01DX001 (ip), vehicle: saline) was 93 % of control; the T/C (dose: 200.0 mg/kg/injection, schedule: Q01DX001 (ip), vehicle: saline) is 96 % of control; the T/C (dose: 400.0 mg/kg/injection, schedule: Q01DX001 (ip), vehicle: saline) is 102 % of control.

Consider `N#Cc1cccnc1Cl`, for which the T/C is 100 % of control (dose: 100.0 mg/kg/injection, schedule: Q01DX001 (ip), vehicle: Klucel (hydroxypropylcellulose) (HPC)); 96 % of control under setting [7]; 94 % of control (dose: 200.0 mg/kg/injection, schedule: Q01DX001 (ip), vehicle: Klucel (hydroxypropylcellulose) (HPC)); 87 % of control under setting [9]; 100 % of control (dose: 400.0 mg/kg/injection, schedule: Q01DX001 (ip), vehicle: Klucel (hydroxypropylcellulose) (HPC)); 99 % of control under setting [11].

As for `CCCCCNC(=O)CCCC`, the T/C runs as follows: under setting [1], 103 % of control; (dose: 100.0 mg/kg/injection, schedule: Q01DX009 (ip), vehicle: carboxymethylcellulose (CMC)) 97 % of control and 108 % of control; (dose: 100.0 mg/kg/injection, schedule: Q04DX002 (ip), vehicle: carboxymethylcellulose (CMC)) 97 % of control; (dose: 100.0 mg/kg/injection, schedule: Q04DX003 (ip), vehicle: carboxymethylcellulose (CMC)) 101 % of control; under setting [2], 104 % of control; (dose: 200.0 mg/kg/injection, schedule: Q01DX009 (ip), vehicle: carboxymethylcellulose (CMC)) 101 % of control and 103 % of control. Further, the T/C was 97 % of control (dose: 200.0 mg/kg/injection, schedule: Q04DX002 (ip), vehicle: carboxymethylcellulose (CMC)); 97 % of control (dose: 200.0 mg/kg/injection, schedule: Q04DX003 (ip), vehicle: carboxymethylcellulose (CMC)); 97 % of control (dose: 400.0 mg/kg/injection, schedule: Q04DX002 (ip), vehicle: carboxymethylcellulose (CMC)); 94 % of control (dose: 400.0 mg/kg/injection, schedule: Q04DX003 (ip), vehicle: carboxymethylcellulose (CMC)).

As for `CCCCCCC(CCCCCC)CCCCCC`, the T/C (dose: 100.0 mg/kg/injection, schedule: Q01DX001 (ip), vehicle: saline with Tween-80) is 99 % of control; the T/C (dose: 200.0 mg/kg/injection, schedule: Q01DX001 (ip), vehicle: saline with Tween-80) was 100 % of control; the T/C (dose: 400.0 mg/kg/injection, schedule: Q01DX001 (ip), vehicle: saline with Tween-80) is 99 % of control.

`CSCCC1NC(=O)C(/C(C)=N\NC(N)=O)=C1O` (centres undefined): the T/C reads like this: under setting [12], 101 % of control; under setting [1], 103 % of control; under setting [2], 103 % of control; under setting [3], 101 % of control.

With `COC(=O)C1(N)CCCC1`, the T/C was 94 % of control (dose: 11.0 mg/kg/injection, schedule: Q01DX Z (ip), vehicle: carboxymethylcellulose (CMC)); 107 % of control (dose: 22.0 mg/kg/injection, schedule: Q01DX Z (ip), vehicle: carboxymethylcellulose (CMC)); 107 % of control (dose: 25.0 mg/kg/injection, schedule: Q01DX009 (ip), vehicle: saline); 108 % of control (dose: 30.0 mg/kg/injection, schedule: Q01DX009 (ip), vehicle: saline); 116 % of control (dose: 30.0 mg/kg/injection, schedule: Q01DX Z (ip), vehicle: saline); 121 % of control (dose: 44.0 mg/kg/injection, schedule: Q01DX009 (ip), vehicle: saline). For the same molecule, the T/C reads like this: (dose: 45.0 mg/kg/injection, schedule: Q01DX Z (ip), vehicle: saline) 118 % of control; (dose: 50.0 mg/kg/injection, schedule: Q01DX009 (ip), vehicle: saline) 109 % of control; under setting [6], 95 % of control; under setting [7], 104 % of control and 113 % of control; under setting [4], 102 % of control; (dose: 150.0 mg/kg/injection, schedule: Q01DX009 (ip), vehicle: saline) 95 % of control. For the same molecule, the T/C was 104 % of control (dose: 150.0 mg/kg/injection, schedule: Q01DX Z (ip), vehicle: saline); 104 % of control under setting [8]; 119 % of control and 120 % of control (dose: 200.0 mg/kg/injection, schedule: Q01DX009 (ip), vehicle: saline); 121 % of control and 124 % of control under setting [9]; 118 % of control under setting [5]; 105 % of control and 115 % of control (dose: 300.0 mg/kg/injection, schedule: Q01DX Z (ip), vehicle: carboxymethylcellulose (CMC)). Moreover, the T/C was 121 % of control under setting [10]; 98 % of control and 102 % of control (dose: 400.0 mg/kg/injection, schedule: Q01DX009 (ip), vehicle: saline); 113 % of control (dose: 400.0 mg/kg/injection, schedule: Q01DX Z (ip), vehicle: carboxymethylcellulose (CMC)); 152 % of control under setting [13]; 110 % of control (dose: 500.0 mg/kg/injection, schedule: Q01DX Z (ip), vehicle: carboxymethylcellulose (CMC)).

With `CCOP(=O)(Nc1ccc2c(c1)/C(=N/NC(N)=S)c1ccccc1-2)OCC`, the T/C is, setting by setting: under setting [12], 100 % of control; under setting [1], 94 % of control; under setting [2], 96 % of control; under setting [3], 89 % of control.

On to `c1ccc2c(c1)[nH]c1nc3ncncc3nc12`, for which the T/C was 94 % of control under setting [4], 88 % of control under setting [5] and 97 % of control under setting [13].

Turning to `CCCNC(=O)Nc1ccc(Nc2ccccc2)cc1`, the T/C runs as follows: under setting [6], 105 % of control; under setting [8], 103 % of control; under setting [10], 94 % of control.
